Source: paper PMC10729476, “Functional characterization of four opsins and two G alpha subtypes co-expressed in the molluscan rhabdomeric photoreceptor” (BMC Biology, 2023)

How the values were obtained:
Limax xenopsin = molecular target: T1, Limax xenopsin (Ambigolimax valentianus, UniProt A0A455SJK2); experiment: UV-VIS absorption spectroscopy of reconstituted purified pigment; format: binding; settings: chromophore added to expressing cells; covalent (retinylidene Schiff base to conserved Lys, general for opsins); 1% dodecyl maltoside extraction; 4 °C
T1 construct: wild-type xenopsin in pMT vector, C-terminal rho 1D4 tag (ETSQVAPA; tag stated, 1D4 purification), HEK293S cells, extracted in dodecyl maltoside
T1 sequence (A0A455SJK2 1-421): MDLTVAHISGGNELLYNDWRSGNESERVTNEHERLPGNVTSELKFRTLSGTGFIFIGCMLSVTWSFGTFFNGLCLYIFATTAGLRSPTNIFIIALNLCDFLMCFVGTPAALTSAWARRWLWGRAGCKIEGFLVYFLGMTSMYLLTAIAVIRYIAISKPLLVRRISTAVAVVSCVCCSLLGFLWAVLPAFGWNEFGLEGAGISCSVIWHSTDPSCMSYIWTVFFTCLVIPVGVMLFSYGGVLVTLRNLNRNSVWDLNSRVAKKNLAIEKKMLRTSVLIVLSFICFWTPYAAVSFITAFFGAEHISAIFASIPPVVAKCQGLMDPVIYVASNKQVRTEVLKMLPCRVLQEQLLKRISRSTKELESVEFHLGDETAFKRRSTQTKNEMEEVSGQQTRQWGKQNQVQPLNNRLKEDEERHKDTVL

Limax Opn5A = molecular target: T2, Limax Opn5A (Ambigolimax valentianus, UniProt A0A455SGG5); experiment: as above; format: binding; settings: chromophore added to expressing cells; covalent (retinylidene Schiff base to conserved Lys, general for opsins); 1% dodecyl maltoside extraction; 4 °C; low expression, impurities, spectrum fitted with
T2 construct: wild-type Opn5A in pMT vector, C-terminal rho 1D4 tag (ETSQVAPA; tag stated, 1D4 purification), HEK293S cells, extracted in dodecyl maltoside
T2 sequence (A0A455SGG5 1-425): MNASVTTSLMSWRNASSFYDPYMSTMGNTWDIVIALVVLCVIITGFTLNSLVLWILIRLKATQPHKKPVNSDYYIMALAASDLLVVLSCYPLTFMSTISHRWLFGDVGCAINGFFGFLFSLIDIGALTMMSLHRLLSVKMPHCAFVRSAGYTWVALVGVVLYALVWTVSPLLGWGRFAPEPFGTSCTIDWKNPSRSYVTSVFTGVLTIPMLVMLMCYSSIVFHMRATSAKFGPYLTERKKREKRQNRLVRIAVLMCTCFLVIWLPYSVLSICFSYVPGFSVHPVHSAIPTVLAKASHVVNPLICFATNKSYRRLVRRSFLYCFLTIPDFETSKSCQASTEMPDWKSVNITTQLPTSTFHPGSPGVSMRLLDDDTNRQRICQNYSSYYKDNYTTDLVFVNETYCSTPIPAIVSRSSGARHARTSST

CC1=C(/C=C/C(C)=C/C=C\C(C)=C\C=O)C(C)(C)CCC1 [11-cis retinal]
UV-VIS absorption spectroscopy of reconstituted purified pigment (Limax xenopsin): After the addition of the 11-cis retinal, opsin-based pigments were extracted | UV-VIS absorption spectroscopy of reconstituted purified pigment (Limax Opn5A): After the addition of the 11-cis retinal, opsin-based pigments were extracted
